The text below walks through data of patent publication US4859669A, “Antiinflammatory and anti-hyperproliferative naphthyridin-4-ones” (Schering Corporation, priority 1987, dated 1989).

The target of one assay is T1, 5-lipoxygenase (Rattus norvegicus, UniProt P12527).
T1 construct: endogenous in cells; host or cells: neutrophils isolated from the pleural exudate of male Wistar-Lewis rats (given "Witar-Lewis" in the source) after BSA / anti-BSA challenge
T1 sequence (P12527 1-673): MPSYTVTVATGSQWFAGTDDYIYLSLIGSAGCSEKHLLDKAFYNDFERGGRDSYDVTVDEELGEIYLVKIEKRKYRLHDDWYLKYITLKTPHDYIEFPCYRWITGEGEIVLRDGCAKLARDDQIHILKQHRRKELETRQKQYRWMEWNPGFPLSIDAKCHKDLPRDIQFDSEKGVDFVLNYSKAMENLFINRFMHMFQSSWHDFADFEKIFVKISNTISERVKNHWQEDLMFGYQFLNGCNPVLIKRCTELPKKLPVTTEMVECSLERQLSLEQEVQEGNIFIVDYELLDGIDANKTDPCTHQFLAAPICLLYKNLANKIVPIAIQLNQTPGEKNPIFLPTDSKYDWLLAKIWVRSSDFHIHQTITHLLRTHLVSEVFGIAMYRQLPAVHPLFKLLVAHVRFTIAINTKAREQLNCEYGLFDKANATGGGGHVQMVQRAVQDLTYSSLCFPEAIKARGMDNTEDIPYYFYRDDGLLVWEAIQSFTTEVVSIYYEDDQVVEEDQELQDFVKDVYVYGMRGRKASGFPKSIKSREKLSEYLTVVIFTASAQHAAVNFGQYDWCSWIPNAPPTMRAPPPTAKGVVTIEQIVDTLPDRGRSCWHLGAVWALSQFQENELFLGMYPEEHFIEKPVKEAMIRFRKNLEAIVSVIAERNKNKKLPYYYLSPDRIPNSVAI
Nature of the assay: Lipoxygenase assay: arachidonic acid metabolism in rat neutrophils. Type of assay: cell-based. Particulars: compound 5×10^-5 Molar. As for the experimental part:
The effect of the compounds of the invention on 5-lipoxygenase activity is determined using rat neutrophils. Male Witar-Lewis rats are injected intravenously with 5 mg BSA in 0.2 ml pyrogen free saline followed by an intrapleural injection of 500 ug of the IgG fraction of rabbit anti-BSA (Cappel Labs., Lot 17782) in 0.2 ml pyrogen free saline. Injections are made under light ether anesthesia. Four hours later, the pleural cavity exudate consisting of 85 to 95% neutrophils is removed. Neutrophils are isolated from the pleural exudates by centrifugation of 4° C. for 10 min at 200× g. The cell pellet is resuspended in 17 mM Tris is HCl buffer, pH 7.2, containing 0.75% NH4 Cl to lyse contaminating erythrocytes followed by centrifugation at 4° C. for 5 min at 200× g. The pelleted neutrophils are rewashed in 50 mM Tris HCl, pH 7.4, containing 100 mM NaCl, followed by the same centrifugation. The cell pellet is resuspended in 50 mM Tris HCl, pH 7.4, containing 100 mM NaCl and 1 mM CaCl2, at 3-12×10^7 intact neutrophils per ml.
Solutions of compounds in methanol are dried, then resuspended in the cell suspension for 4 min. Arachidonic acid methabolism is determined by incubating 0.1 ml of this suspension with 40 μM [1-^14 C] arachidonic acid (AA) (Amersham, 59 Ci/mole), in the presence of 0.1% BRIJ 56 and 10 μM A23187. Arachidonic acid metabolism as well as the various drug and reagent abbreviations are described in detail in Arch. Dermatol, Vol. 119, pages 541 to 547 (July 1983), the teachings of which are incorporated herein by reference. Assays run in triplicate are initiated by adding cells with inhibitor to a film of the BRIJ 56, arachidonic acid and A23187 37° C. After one minute, reactions are terminated by the addition of 2.4 ml of a chloroform:methanol (1:1 v/v) mixture and 0.9 ml of 0.1% formic acid. […] Products, leukotriene B4 (LTB4), 12-hydroxy heptadecatrienoic acid (HHT) and 5-hydroxy icosatetraenoic acid (5-HETE), are located by autoradiography and appropriate regions of the thin layer plates are scraped and counted in a liquid scintillation counter. […]

For assay [1], the system named is Male Lewis inbred albino rats. Nature of the assay: Reversed passive Arthus reaction (RPAR), rat paw volume. The format is in vivo. Particulars: po, 1 h, dosed one hour prior to sensitization with BSA. The procedure: REVERSED PASSIVE ARTHUS REACTION (RPAR) ANIMALS, MATERIALS AND METHODS
Male Lewis inbred albino rats weighting 180-220 grams obtained from Charles River Breeding Laboratories are used in these experiments. The rats are housed 3 animals/cage and food and water are allowed ad libitum. The animals are numbered 1-3 in each cage and color marked for identification purposes.
All reagents and drugs are prepared just prior to the study. Crystallized and lyophilized bovine serum albumin (BSA), obtained from Sigma Chemical Company, is solubilized without shaking in cold sterile pyrogen free saline (10 mg/ml). Lyophilized anti-bovine serum albumin (IgG Fraction), obtained from Cappel Laboratories, is suspended in sterile distilled water and diluted with cold pyrogen free saline (PFS) just prior to use. The final concentration of anti-bovine serum albumin is 0.5 mg/ml of PFS. Both BSA and anti-BSA solutions are iced during use. Drugs are suspended or solubilized in an aqueous solution of methyl cellulose (MC) with a homogenizer just prior to administration.
Groups of animals (6/group) are dosed with drug in MC by gavage one hour prior to sensitization with BSA. […] The volume of mercury displaced is converted to weight and recorded. […] Paw volumes are also recorded with a plethysmograph during the development of the inflammation at 2 and 4 hours post-challenge.

A further assay has as its system pleural cavity of rats. Description: Reverse passive Arthus reaction in the pleural cavity of rats (Myers et al.). Particulars: po; rat. Type of assay: in vivo. From the text:
Another procedure for testing for acute antiinflammatory activity measures the reverse passive Arthus reaction in the pleural cavity of rats as described in Myers et al., Inflammation, Vol. 9, No. 1, 1985, pp. 91-98.

Read-outs that look alike come from different tables or passages of the source. Some results are limits rather than exact numbers.

Broadly, the inhibition is the relative decrease from the control value, in per cent. For `O=c1c2c(c3cccnc3n1-c1ccccc1)N(c1ccccc1)CC2` [1,2,3,5-tetrahydro-1,5-diphenyl-4H-pyrrolo[3,2-c][1,8]napthyridin-4-one], the figures for the inhibition at 50 µM at 5-lipoxygenase (read-out: inhibition of HETE production), at 5-lipoxygenase (read-out: inhibition of HHT production) and at 5-lipoxygenase (read-out: inhibition of LTB4 production) were 60%, approximately 40% and 60%, respectively.
Usually ED50 stands for the dose that gives a 50% effect, or the effect in half of the subjects. Turning to `O=c1c2c(c3cccnc3n1-c1ccccc1)NCC2` [1,2,3,5-tetrahydro-5-phenyl-4H-pyrrolo[3,2-c][1,8]naphthyridin-4-one], the ED50 in assay [1] is approximately 25 mg/kg; in the assay with pleural cavity of rats, less than 25 mg/kg.
`CCOC(=O)N1CCc2c1c1cccnc1n(-c1ccccc1)c2=O` [2,3,4,5-tetrahydro-4-oxo-5-phenyl-1H-pyrrolo[3,2-c][1,8]napthyridine-1-carboxylic acid, ethyl ester] had a 50% effective dose (ED50) in the assay with pleural cavity of rats of approximately 25 mg/kg.
